Patent US20230382924A1, “MODULATORS OF CYSTIC FIBROSIS TRANSMEMBRANE CONDUCTANCE REGULATOR” (VERTEX PHARMACEUTICALS INCORPORATED, priority 2020, published 2023)
Where two headings read alike, the source gives them in different places.

Target: CFTR (Homo sapiens, UniProt P13569)
Assay: Membrane Potential Dye, Enteroid Assay A
Format: cell-based
Settings: for EC50: read-out: Ent. A EC50
Method: Base medium (ADF+++) consisted of Advanced DMEM/Ham's F12, 2 mM Glutamax, 10 mM HEPES, […] penicillin/streptomycin.
Bath 1 Buffer consisted of 1 mM MgCl2, 160 mM NaCl, 4.5 mM KCl, 10 mM HEPES, 10 mM Glucose, 2 mM CaCl2).
Chloride Free Buffer consisted of 1 mM Magnesium Gluconate, 2 mM Calcium Gluconate, 4.5 mM Potassium Gluconate, 160 mM Sodium Gluconate, 10 mM HEPES, 10 mM Glucose.
Bath 1 Dye Solution consisted of Bath 1 Buffer, 0.04% Pluronic F127, 20 μM Methyl Oxonol, 30 μM CaCCinh-A01, 30 μM Chicago Sky Blue.
Chloride Free Dye Solution consisted of Chloride Free Buffer, 0.04% Pluronic F127, 20 μM Methyl Oxonol, 30 μM CaCCinh-A01, 30 μM Chicago Sky Blue.
3. Enteroid Cell Harvesting and Seeding
Cells were recovered in cell recovery solution, collected by centrifugation at 650 rpm for 5 min at 4° C., resuspended in TryPLE and incubated for 5 min at 37° C. Cells were then collected by centrifugation at 650 rpm for 5 min at 4° C. and resuspended in IEMM containing 10 μM ROCK inhibitor (RI).
4. Membrane Potential Dye, Enteroid Assay A
Briefly, cells were washed 5 times in Bath 1 Buffer. Bath 1 Dye Solution was added, and the cells were incubated for 25 min at room temperature. Following dye incubation, cells were washed 3 times in Chloride Free Dye Solution. Chloride transport was initiated by addition of Chloride Free Dye Stimulation Solution and the fluorescence signal was read for 15 min. […] Chloride transport was then expressed as a percentage of the chloride transport following treatment with 3 μM N-[(6-amino-2-pyridyl)sulfonyl]-6-(3-fluoro-5-isobutoxy-phenyl)-2-[(4S)-2,2,4-trimethylpyrrolidin-1-yl]pyridine-3-carboxamide, 3 μM (R)-1-(2,2-difluorobenzo[d][1,3]dioxol-5-yl)-N-(1-(2,3-dihydroxypropyl)-6-fluoro-2-(1-hydroxy-2-methylpropan-2-yl)-1H-indol-5-yl)cyclopropanecarboxamide and 300 nM acute N-[2,4-bis(1,1-dimethylethyl)-5-hydroxyphenyl]-1,4-dihydro-4-oxoquinoline-3-carboxamide triple combination control (% Activity).

Chain of CFTR (P13569 with tags, fused parts or gaps DEL508-508): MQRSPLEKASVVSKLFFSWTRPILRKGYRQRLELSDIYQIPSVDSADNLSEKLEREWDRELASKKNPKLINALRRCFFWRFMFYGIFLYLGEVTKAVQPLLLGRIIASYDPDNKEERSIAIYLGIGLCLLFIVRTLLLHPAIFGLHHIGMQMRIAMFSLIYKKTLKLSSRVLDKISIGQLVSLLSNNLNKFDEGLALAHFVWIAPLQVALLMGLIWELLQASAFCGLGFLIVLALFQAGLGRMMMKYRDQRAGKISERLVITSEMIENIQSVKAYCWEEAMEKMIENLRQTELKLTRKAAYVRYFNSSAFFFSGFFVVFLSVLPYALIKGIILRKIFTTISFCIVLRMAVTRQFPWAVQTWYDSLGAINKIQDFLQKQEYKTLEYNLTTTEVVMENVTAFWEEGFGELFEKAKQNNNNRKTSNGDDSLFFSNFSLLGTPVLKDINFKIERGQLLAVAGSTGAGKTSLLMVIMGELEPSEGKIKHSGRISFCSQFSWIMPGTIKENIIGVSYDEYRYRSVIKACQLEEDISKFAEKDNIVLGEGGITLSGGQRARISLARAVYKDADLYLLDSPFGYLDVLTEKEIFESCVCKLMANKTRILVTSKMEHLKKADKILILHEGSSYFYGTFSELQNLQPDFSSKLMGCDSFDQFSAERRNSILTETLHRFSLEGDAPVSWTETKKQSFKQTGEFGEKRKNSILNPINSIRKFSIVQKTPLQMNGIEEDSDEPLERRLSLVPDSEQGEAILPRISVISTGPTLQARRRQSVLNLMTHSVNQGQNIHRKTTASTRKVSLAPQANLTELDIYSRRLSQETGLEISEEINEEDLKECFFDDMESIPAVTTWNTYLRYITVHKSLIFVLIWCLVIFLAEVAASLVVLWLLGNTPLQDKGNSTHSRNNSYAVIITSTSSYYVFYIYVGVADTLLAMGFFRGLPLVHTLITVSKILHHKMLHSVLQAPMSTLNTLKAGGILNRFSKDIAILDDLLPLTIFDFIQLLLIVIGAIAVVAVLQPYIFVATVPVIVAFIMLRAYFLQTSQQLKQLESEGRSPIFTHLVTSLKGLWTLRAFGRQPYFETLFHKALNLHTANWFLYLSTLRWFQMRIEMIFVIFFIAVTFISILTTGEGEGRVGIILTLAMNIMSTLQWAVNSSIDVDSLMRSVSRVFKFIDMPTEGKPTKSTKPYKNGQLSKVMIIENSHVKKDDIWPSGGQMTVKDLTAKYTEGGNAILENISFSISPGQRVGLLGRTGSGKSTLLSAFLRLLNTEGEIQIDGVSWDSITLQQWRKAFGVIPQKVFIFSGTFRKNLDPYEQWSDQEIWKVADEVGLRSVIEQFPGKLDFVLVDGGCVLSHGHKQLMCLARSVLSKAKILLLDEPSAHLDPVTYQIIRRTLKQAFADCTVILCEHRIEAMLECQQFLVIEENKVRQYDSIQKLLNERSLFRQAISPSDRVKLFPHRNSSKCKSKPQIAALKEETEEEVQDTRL

SMILES	Ent. A Max Activity (Table 9)	EC50 (Table 9) [µM]	Ent. A Max Activity (Table 8)	further results
CCC[C@H]1NC(=O)c2cccc(c2)S(=O)(=O)Nc2nc(cc(-c3c(C)cccc3C)n2)O[C@H]1c1ccc(C(C)(C)C)cc1 [Compound 226]	+++ (+++ is >60%)	< 1		
Cc1cccc(C)c1-c1cc2nc(n1)NS(=O)(=O)c1cccc(c1)C(=O)NCC(c1ccc(C3CCC3)cc1)O2 (single isomer, unassigned) [Compound 14, 10-(4-cyclobutylphenyl)-6-(2,6-dimethylphenyl)-2,2-dioxo-9-oxa-2λ^6-thia-3,5,12,19-tetrazatricyclo[12.3.1.14,8]nonadeca-1(18),4(19),5,7,14,16-hexaen-13-one]	+++ (+++ is >60%)	< 1		
Cc1cccc(C)c1-c1cc2nc(n1)NS(=O)(=O)c1cccc(c1)C(=O)NCC1(CCN(CC3CCCCC3)CC1)CO2 [Compound 85, 1′-(Cyclohexylmethyl)-6-(2,6-dimethylphenyl)-2,2-dioxo-spiro[9-oxa-2λ^6-thia-3,5,13,20-tetrazatricyclo[13.3.1.14,8]icosa-1(19),4(20),5,7,15,17-hexaene-11,4′-piperidine]-14-one]				Ent. A Max Activity (Enteroid Assay A): ++ (++ is 30-60%); EC50 (Enteroid Assay A): 3 to 30 µM
Cc1cccc(C)c1-c1cc2nc(n1)NS(=O)(=O)c1cccc(c1)C(=O)NCC(c1ccc(CCC(C)(C)C)cc1)O2 (stereo not drawn) [Compound 24, 10-[4-(3,3-dimethylbutyl)phenyl]-6-(2,6-dimethylphenyl)-2,2-dioxo-9-oxa-2λ^6-thia-3,5,12,19-tetrazatricyclo[12.3.1.14,8]nonadeca-1(18),4(19),5,7,14,16-hexaen-13-one]	+++ (+++ is >60%)	< 1		
COCCOc1ccc(C2CNC(=O)c3cccc(c3)S(=O)(=O)Nc3nc(cc(-c4c(C)cccc4C)n3)O2)cc1 (stereo not drawn) [Compound 120]			+ (+ is <30%)	
Cc1cccc(C)c1-c1cc2nc(n1)NS(=O)(=O)c1cccc(c1)C(=O)NCC1(CCN(CCC(C)CC(C)(C)C)CC1)CO2 (stereo not drawn) [Compound 441]				Ent. A Max Activity (Enteroid Assay A): +++ (+++ is >600%); EC50 (Enteroid Assay A): < 1 µM
Cc1cc(C2CNC(=O)c3cccc(c3)S(=O)(=O)Nc3nc(cc(-c4c(C)cccc4C)n3)O2)cc2c1OC(C)(C)C2 (stereo not drawn) [Compound 119]			+ (+ is <30%)	
Cc1cccc(C)c1-c1cc2nc(n1)NS(=O)(=O)c1cccc(c1)C(=O)NC[C@@H](c1ccc(C(C)(C)C(F)(F)F)cc1)O2 [Compound 257]	+ (+ is <30%)	< 1		
COC(=O)c1cc(CN2CCC3(CC2)CNC(=O)c2cccc(c2)S(=O)(=O)Nc2nc(cc(-c4c(C)cccc4C)n2)OC3)ccc1F [Compound 437]				Ent. A Max Activity (Enteroid Assay A): ++ (++ is 30-60%); EC50 (Enteroid Assay A): 3 to 30 µM
Cc1cnn(C)c1-c1cc2nc(n1)NS(=O)(=O)c1cccc(c1)C(=O)N[C@H](CC(C)C)CO2 [Compound 179]	++ (++ is 30-60%)	3 to 30		
Cc1cccc(C)c1-c1cc2nc(n1)NS(=O)(=O)c1cccc(c1)C(=O)NC1CCCC[C@@H]1O2 (stereo in doubt) [Compound 485]				EC50 (Enteroid Assay A): 1 to 3 µM
Cc1cccc(C)c1-c1cc2nc(n1)NS(=O)(=O)c1cccc(c1)C(=O)N[C@H](CC1CCCCC1)[C@@H](C1CC1)O2 [Compound 131]	+++ (+++ is >60%)	< 1		
Cc1cccc(C)c1-c1cc2nc(n1)NS(=O)(=O)c1cccc(c1)C(=O)NCC1(CCN(C(=O)C3CC[C@@H](NC(=O)OC(C)(C)C)C3)CC1)CO2 (stereo partly drawn) [Compound 470]				Ent. A Max Activity (Enteroid Assay A): ++ (++ is 30-60%)
Cc1ccccc1[C@H]1CNC(=O)c2cccc(c2)S(=O)(=O)Nc2nc(cc(-c3c(C)cccc3C)n2)O1 (stereo in doubt) [Compound 277]			+ (+ is <30%)	
Cc1cccc(C)c1-c1cc2nc(n1)NS(=O)(=O)c1cccc(c1)C(=O)NC[C@@H](c1ccccn1)O2 [Compound 232]			+ (+ is <30%)	
Cc1cccc(C)c1-c1cc2nc(n1)NS(=O)(=O)c1cccc(c1)C(=O)NCC(c1ccc(CC[Si](C)(C)C)cc1)O2 (stereo not drawn) [Compound 127]		< 1		
CC(C)C[C@@H]1COc2cc(-c3ccccc3C3CC3)nc(n2)NS(=O)(=O)c2cccc(c2)C(=O)N1 [Compound 105, (11R)-6-(2-cyclopropylphenyl)-11-(2-methylpropyl)-9-oxa-2λ^6-thia-3,5,12,19-tetraazatricyclo[12.3.1.14,8]nonadeca-1(17),4(19),5,7,14(18),15-hexaene-2,2,13-trione]				Ent. A Max Activity (Enteroid Assay A): +++ (+++ is >600%); EC50 (Enteroid Assay A): < 1 µM
COc1cccc(C2CNC(=O)c3cccc(c3)S(=O)(=O)Nc3nc(cc(-c4c(C)cccc4C)n3)O2)c1 (stereo not drawn) [Compound 158]			+++ (+++ is >60%)	EC50 (Table 8): < 1 µM
Cc1cccc(C)c1-c1cc2nc(n1)NS(=O)(=O)c1cccc(c1)C(=O)NCC(c1ccc(Br)cc1)O2 (racemic) [Compound 18, 10-(4-Bromophenyl)-6-(2,6-dimethylphenyl)-2,2-dioxo-9-oxa-2λ^6-thia-3,5,12,19-tetrazatricyclo[12.3.1.14,8]nonadeca-1(18),4(19),5,7,14,16-hexaen-13-one]			+++ (+++ is >60%)	EC50 (Table 8): < 1 µM
COc1ccccc1-c1cc2nc(n1)NS(=O)(=O)c1cccc(c1)C(=O)N[C@H](CC(C)C)CO2 [Compound 330]				Ent. A Max Activity (Enteroid Assay A): ++ (++ is 30-60%)
Cc1cccc(C)c1-c1cc2nc(n1)NS(=O)(=O)c1cccc(c1)C(=O)NCC1(CCN(CCOCc3ccccc3)CC1)CO2 [Compound 445]				Ent. A Max Activity (Enteroid Assay A): ++ (++ is 30-60%); EC50 (Enteroid Assay A): 3 to 30 µM
Cc1cccc(C)c1-c1cc2nc(n1)NS(=O)(=O)c1cccc(c1)C(=O)NC[C@@H](CC(C)C)O2 [Compound 254]			+ (+ is <30%)	
Cc1cccc(C)c1-c1cc2nc(n1)NS(=O)(=O)c1cc(cc(C3CCCCC3)c1)C(=O)N[C@H](CC(C)C)CO2 [Compound 137]			+ (+ is <30%)	
Cc1cccc(C)c1-c1cc2nc(n1)NS(=O)(=O)c1cccc(c1)C(=O)NC(C(=O)NC(C)(C)C)CO2 (stereo not drawn) [Compound 66, N-tert-butyl-6-(2,6-dimethylphenyl)-2,2,13-trioxo-9-oxa-2λ^6-thia-3,5,12,19-tetrazatricyclo[12.3.1.14,8]nonadeca-1(18),4(19),5,7,14,16-hexaene-11-carboxamide]			+ (+ is <30%)	
Cc1cccc(C)c1-c1cc2nc(n1)NS(=O)(=O)c1cc(cc(C3CCOCC3)c1)C(=O)N[C@H](CC(C)C)CO2 [Compound 138]			+ (+ is <30%)	
COc1ccccc1C1CNC(=O)c2cccc(c2)S(=O)(=O)Nc2nc(cc(-c3c(C)cccc3C)n2)O1 (stereo not drawn) [Compound 280]			+++ (+++ is >60%)	EC50 (Table 8): < 1 µM
Cc1cccc(C)c1-c1cc2nc(n1)NS(=O)(=O)c1cc(cc(-c3ccc(C(C)(C)C)cc3)c1)C(=O)N[C@H](CC(C)C)CO2 [Compound 135]			+ (+ is <30%)	
Cc1cccc(C)c1-c1cc2nc(n1)NS(=O)(=O)c1cccc(c1)C(=O)N[C@H](C)[C@H](c1ccc(C(C)(C)C)cc1)O2 [Compound 134]			+ (+ is <30%)	EC50 (Table 8): < 1 µM
Cc1cccc(C)c1-c1cc2nc(n1)NS(=O)(=O)c1cccc(c1)C(=O)NC1CC(CN(CCC3(C(F)(F)F)CC3)C1)O2 (stereo not drawn) [Compound 194]				EC50 (Enteroid Assay A): 1 to 3 µM

Further lines, with some results ahead:

Ent. A Max Activity (Table 9)	EC50 (Table 9) [µM]	Ent. A Max Activity (Table 8)	SMILES	further results
		+ (+ is <30%)	COc1cccc(C)c1-c1cc2nc(n1)NS(=O)(=O)c1cccc(c1)C(=O)N[C@H](CC1CCCCC1)CO2 [Compound 303]	EC50 (Table 8): < 1 µM
+++ (+++ is >60%)	< 1		Cc1cccc(C)c1-c1cc2nc(n1)NS(=O)(=O)c1cccc(c1)C(=O)NC1(CCC(C(C)(C)C)CC1)CO2 (stereo not drawn) [Compound 495]	
+++ (+++ is >60%)	1 to 3		Cc1cccc(C)c1-c1cc2nc(n1)NS(=O)(=O)c1cccc(c1)C(=O)N[C@@H]1CN(C3CCC4(CC3)CC4)CC[C@H]1O2 [Compound 374]	
+++ (+++ is >60%)	< 1		Cc1cccc(C)c1-c1cc2nc(n1)NS(=O)(=O)c1cccc(c1)C(=O)NCC(c1ccc(C34CC(C3)C4)cc1)O2 (stereo not drawn) [Compound 398]	
+ (+ is <30%)			Cc1cccc(C)c1-c1cc2nc(n1)NS(=O)(=O)c1ccccc1C(=O)N[C@H](C)[C@@H](c1ccc(C(C)(C)C)cc1)O2 [Compound 282]	
		+++ (+++ is >60%)	COc1ccc(C)c(-c2cc3nc(n2)NS(=O)(=O)c2cccc(c2)C(=O)N[C@H](CC(C)C)CO3)c1 [Compound 302]	EC50 (Table 8): 1 to 3 µM
++ (++ is 30-60%)	3 to 30		Cc1cccc(C)c1-c1cc2nc(n1)NS(=O)(=O)c1cccc(c1)C(=O)N[C@@H]1CCN(C(=O)CC(C)(C)C)C[C@@H]1O2 (stereo in doubt) [Compound 380]	
